Patent US10017712B2, “Method for producing vitamin E-enriched, especially tocotrienol-enriched, compositions from natural oils” (Evonik Degussa GmbH, priority 2014, dated 2018)

What was measured:
[1] = Partition coefficients of individual tocopherols and tocotrienols, palm oil with ethanol or methanol; type: physicochemical
Description: Table 3 provides values of the individual partition coefficient values of tocopherol and tocotrienol compounds found in palm oil. The values were measured by contacting palm oil and ethanol (denoted PC Eth in Table 3) and palm oil and methanol (denoted PC Meth in Table 3) at the oil to solvent ratios noted in the table—e.g. PC Eth 1:5 means that one volume of palm oil was contacted with 5 volumes of ethanol.

[2] = Single stage methanol extraction of vegetable oils, partition coefficient; type: physicochemical
Description: First methanol was tested for its efficiency in extracting of α-tocopherol and FFA from three vegetable oils. 200-300 ml of oil was mixed with the solvent using a magnetic stirrer at 35° C. The mixture is gravity separated and the oil stayed at the bottom. Partition coefficients of α-tocopherol and FFA were obtained by measuring the concentration of both compounds in the extract and the bottom fraction without evaporation of the solvent. The partition coefficient is calculated as follows: PC=(concentration in the extract)/(concentration in the bottom fraction).

[3] = PC Meth 1:1 (palm oil:methanol)
[4] = PC Meth 1:2 (palm oil:methanol)
[5] = PC Meth 1:5 (palm oil:methanol)
[6] = PC Meth 1:7 (palm oil:methanol)
[7] = PC Meth 1:3 (palm oil:methanol)

Partition coefficient ([1]; PC Eth 1:1 (palm oil:ethanol)) | Partition coefficient ([1]; PC Eth 1:2 (palm oil:ethanol)) | Partition coefficient ([1]; PC Eth 1:5 (palm oil:ethanol)) | Partition coefficient ([1]; PC Eth 1:7 (palm oil:ethanol)) | Partition coefficient [1, 3] | Partition coefficient [1, 4] | Partition coefficient [1, 5] | Partition coefficient [1, 6] | Partition coefficient ([2]; Palm Oil, Solvent:Oil Ratio 2:1, 35° C.) | Partition coefficient ([2]; Rapeseed Oil, Solvent:Oil Ratio 3:1, 35° C.) | Partition coefficient ([2]; Rice Bran Oil, Solvent:Oil Ratio 2:1, 35° C.) | Structure (SMILES) | Partition coefficient ([1]; PC Eth 1:3 (palm oil:ethanol)) | Partition coefficient [1, 7]
0.50 | 0.47 | 0.53 | 0.29 | 0.25 | 0.07 | 0.09 | 0.01 |  |  |  | Cc1cc(O)cc2c1O[C@](C)(CCC[C@H](C)CCC[C@H](C)CCCC(C)C)CC2 [Delta-tocopherol] |  | 
0.30 | 0.31 | 0.42 | 0.22 | 0.21 | 0.15 | 0.11 | 0.09 | 0.15 | 0.39 | 0.20 | Cc1c(C)c2c(c(C)c1O)CC[C@@](C)(CCC[C@H](C)CCC[C@H](C)CCCC(C)C)O2 [α-tocopherol] | 0.25 | 0.21

Structure (SMILES) | Partition coefficient ([1]; PC Eth 1:1 (palm oil:ethanol)) | Partition coefficient ([1]; PC Eth 1:2 (palm oil:ethanol)) | Partition coefficient ([1]; PC Eth 1:5 (palm oil:ethanol)) | Partition coefficient ([1]; PC Eth 1:7 (palm oil:ethanol)) | Partition coefficient [1, 3] | Partition coefficient [1, 4] | Partition coefficient [1, 5] | Partition coefficient [1, 6] | Partition coefficient ([2]; Palm Oil, Solvent:Oil Ratio 2:1, 35° C.) | Partition coefficient ([2]; Rapeseed Oil, Solvent:Oil Ratio 3:1, 35° C.) | Partition coefficient ([2]; Rice Bran Oil, Solvent:Oil Ratio 2:1, 35° C.) | Partition coefficient ([1]; PC Eth 1:3 (palm oil:ethanol)) | Partition coefficient [1, 7]
CC(C)=CCC/C(C)=C/CC/C(C)=C/CC[C@]1(C)CCc2cc(O)c(C)c(C)c2O1 [Gamma-tocotrienol] | 0.72 | 0.81 | 0.79 | 0.53 | 1.17 | 0.64 | 0.46 | 0.36 |  |  |  | 0.85 | 0.76
